One may read the IC50 as the concentration at which inhibition is half-maximal.

The nature of data set [1]: Assay C: metabolic stability in human liver microsomes (human MST). The data set is classed as in vitro ADME. The note with it: for half-life at 1 μM: pH 7.6, pooled human liver microsomes, 1 μM test compound, 37° C., read-out: Assay C: Human MST t1/2; for stability in human liver microsomes compared with closest prior art compounds in WO2016/034882 (in words): versus closest prior art examples of WO2016/034882. Here is the method:
C. Assessment of Metabolic Stability in Human Liver Microsomes (Human MST) The metabolic stability of the compounds according to the invention may be investigated as follows: The metabolic degradation of the test compound is assayed at 37° C. with pooled human liver microsomes. The final incubation volume of 100 μL per time point contains TRIS buffer pH 7.6 at room temperature (0.1 M), MgCl2 (5 mM), microsomal protein (1 mg/mL) and the test compound at a final concentration of 1 μM. Following a short pre-incubation period at 37° C., the reactions are initiated by addition of beta-nicotinamide adenine dinucleotide phosphate, reduced form (NADPH, 1 mM), and terminated by transferring an aliquot into solvent after different time points. After centrifugation (10000 g, 5 min), an aliquot of the supernatant is assayed by LC-MS/MS for the amount of parent compound. The half-life (t1/2) is determined by the slope of the semi-logarithmic plot of the concentration-time profile.
A general note: Liver microsomes are vesicles of endoplasmic reticulum, rich in cytochrome P450 enzymes.

Data set [2] deals with T1, human Orexin 1 receptor (Homo sapiens, UniProt O43613).
T1 construct: stably expressing the full-length human Orexin 1 receptor; expressed in transfected cells; host or cells: CHO-K1 (CHO-K1/hOx1)
T1 sequence (O43613 1-425): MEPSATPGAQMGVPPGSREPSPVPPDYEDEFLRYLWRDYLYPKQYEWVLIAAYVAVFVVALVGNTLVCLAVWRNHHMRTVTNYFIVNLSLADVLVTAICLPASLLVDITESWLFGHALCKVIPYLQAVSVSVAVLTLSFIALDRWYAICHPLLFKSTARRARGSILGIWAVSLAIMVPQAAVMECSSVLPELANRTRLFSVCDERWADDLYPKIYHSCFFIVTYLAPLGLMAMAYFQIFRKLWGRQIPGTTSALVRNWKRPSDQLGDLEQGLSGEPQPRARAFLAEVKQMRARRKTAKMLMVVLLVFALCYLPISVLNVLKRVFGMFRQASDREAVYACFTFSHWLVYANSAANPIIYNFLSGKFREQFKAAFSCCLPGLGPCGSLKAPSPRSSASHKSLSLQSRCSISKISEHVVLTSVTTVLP
As to the kind of experiment: Assay A: in vitro testing of OX1R potency, OX1R IP1. The note with it: Table 3, read-out: Assay A OX1R Kb [nM] (Orexin A concentration). The data set is classed as cell-based. From the text:
Chem. Genomics 2009, 3, 22-32. […] AssayExplorer (Accelrys). […] Sci. 1993, 14(4), 110-112).

The target of data set [3] is T2, OX2R (Homo sapiens, UniProt O43614).
T2 sequence (O43614 1-444): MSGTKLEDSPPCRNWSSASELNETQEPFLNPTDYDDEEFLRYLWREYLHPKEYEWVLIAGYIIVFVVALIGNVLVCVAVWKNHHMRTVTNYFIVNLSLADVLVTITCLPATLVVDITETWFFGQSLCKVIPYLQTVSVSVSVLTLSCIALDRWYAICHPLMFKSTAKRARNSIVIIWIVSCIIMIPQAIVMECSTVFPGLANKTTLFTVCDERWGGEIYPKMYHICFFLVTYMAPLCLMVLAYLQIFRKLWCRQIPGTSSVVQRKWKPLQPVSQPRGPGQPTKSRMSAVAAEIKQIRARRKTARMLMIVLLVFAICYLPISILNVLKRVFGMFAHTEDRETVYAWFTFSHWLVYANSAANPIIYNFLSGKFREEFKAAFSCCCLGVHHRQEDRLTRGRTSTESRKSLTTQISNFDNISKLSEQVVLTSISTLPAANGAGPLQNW
The note with it: Table 3 of WO2016/034882, cited from earlier work.

Data set [4] deals with T2, OX2R. As to the kind of experiment: OX2R in vitro potency as reported in WO2016/034882. The class given is cell-based. The note with it: Table 1 of WO2016/034882.

Where two headings read alike, the source gives them in different places.

Turning to `CCN(C(=O)c1cc(C(F)(F)F)ccc1-n1nccn1)[C@@H](C)COc1cnc(C(F)(F)F)cn1` [Example 7], the half-life at 1 μM in data set [1] was > 2.17 h. The Kb in data set [2] (0.5 nM Orexin A) stood at 13 nM.
As for `CCN(C(=O)c1ccc(C)cc1-n1nccn1)[C@@H](C)COc1cnc(C(F)(F)F)cn1` [Example 10], in data set [1], the half-life at 1 μM worked out at 1.33 h and the “stability in human liver microsomes compared with closest prior art compounds in WO2016/034882 (in words)” value is “markedly improved stability”. Also, the Kb in data set [2] (50 nM Orexin A) was determined as 0.44 nM.
Regarding `CCN(C(=O)c1ccc(F)c(F)c1-n1nccn1)[C@@H](C)COc1cnc(C(F)(F)F)cn1` [Example 33], the half-life at 1 μM in data set [1] is > 2.17 h. In data set [2] (0.5 nM Orexin A), the Kb came to 2.5 nM.
As for `CCN(C(=O)c1ccccc1-n1nccn1)[C@@H](C)COc1cnc(C(F)(F)F)cn1` [Example 1], the half-life at 1 μM in data set [1] was > 2.17 h. For the same molecule, the Kb in data set [2] (0.5 nM Orexin A) stood at 0.97 nM.
Consider `CCN(C(=O)c1cccc(F)c1-c1nnc(C)o1)[C@@H](C)COc1cnc(C(F)(F)F)cn1` [Example 12], for which the half-life at 1 μM in data set [1] is > 2.17 h. Besides, the Kb in data set [2] (0.5 nM Orexin A) came to 12 nM.
Take `CCN(C(=O)c1cc(OC)ccc1-n1nccn1)[C@@H](C)COc1cnc(C(F)(F)F)cn1` [Example 8]: in data set [1], the half-life at 1 μM came to 1.22 h. Also, the Kb in data set [2] (50 nM Orexin A) worked out at 0.8 nM.
Consider `CCN(C(=O)c1cccc(C)c1-c1nnc(C)o1)[C@@H](C)COc1cnc(C(F)(F)F)cn1` [Example 15], for which the half-life at 1 μM in data set [1] is 1.52 h. The results for the Kb in data set [2] (0.5 nM Orexin A) and in data set [2] (50 nM Orexin A) were 1.3 nM and 2.3 nM, respectively.
Regarding `CCN(C(=O)c1cccc(F)c1-n1nccn1)[C@@H](C)COc1cnc(C(F)(F)F)cn1` [Example 22], the half-life at 1 μM in data set [1] is > 2.17 h. Besides, the Kb in data set [2] (0.5 nM Orexin A) and in data set [2] (50 nM Orexin A) was 2.1 nM each time.
In the case of `CC[C@@H](CNc1cnc(C(F)(F)F)cn1)N(CC)C(=O)c1nc(C)ccc1-n1nccn1` [Ex 70 in WO2016/ 034882], the “OX2R pIC50” value in data set [3] was 5.3. Also, the IC50 in data set [3] (read-out: OX2R IC50 (corresponds to pIC50) (converted)) was > 5000 nM. In addition, the half-life at 1 μM in data set [1] was 0.333 h. Further, the Kb in data set [2] (50 nM Orexin A) came out at 0.14 nM.
In the case of `CCN(C(=O)c1cc(F)cc(F)c1-n1nccn1)[C@@H](C)COc1cnc(C(F)(F)F)cn1` [Example 6], the half-life at 1 μM in data set [1] is > 2.17 h. Besides, the Kb in data set [2] (0.5 nM Orexin A) stood at 3 nM.
On the same counts, the results for `CCN(C(=O)c1ccc(C(F)(F)F)cc1-n1nccn1)[C@@H](C)COc1cnc(C(F)(F)F)cn1` [Example 25] are 0.383 h and 12 nM.
In the case of `CCN(C(=O)c1ccccc1-n1cccn1)[C@@H](C)COc1cnc(C(F)(F)F)cn1` [Example 9], the half-life at 1 μM in data set [1] is 0.417 h. Also, in data set [2] (0.5 nM Orexin A), the Kb was 5.4 nM.
As for `CCN(C(=O)c1cccc(F)c1-c1ncccn1)[C@@H](C)COc1cnc(C(F)(F)F)cn1` [Example 29], in data set [1], the half-life at 1 μM was > 2.17 h and the “stability in human liver microsomes compared with closest prior art compounds in WO2016/034882 (in words)” value was “markedly improved stability”. Also, the Kb in data set [2] (0.5 nM Orexin A) was 0.64 nM. Besides, the Kb in data set [2] (50 nM Orexin A) is 0.51 nM.
With `CCN(C(=O)c1ccccc1-c1ncccn1)[C@@H](C)COc1cnc(C(F)(F)F)cn1` [Example 30], in data set [1], the half-life at 1 μM was > 2.17 h and the “stability in human liver microsomes compared with closest prior art compounds in WO2016/034882 (in words)” value is reported as “markedly improved stability”. The Kb in data set [2] (0.5 nM Orexin A) was determined as 0.55 nM. In addition, in data set [2] (50 nM Orexin A), the Kb amounted to 0.63 nM.
On to `CCN(C(=O)c1ccccc1-c1nc(C)no1)[C@@H](C)COc1cnc(C(F)(F)F)cn1` [Example 28], for which the half-life at 1 μM in data set [1] amounted to 0.65 h. In addition, the Kb in data set [2] (0.5 nM Orexin A) is 3.9 nM.
On the same counts, the results for `CCN(C(=O)c1cc(F)c(F)cc1-n1nccn1)[C@@H](C)COc1cnc(C(F)(F)F)cn1` [Example 4] are > 2.17 h and 5.5 nM.
Regarding `CCN(C(=O)c1ccc(F)cc1-n1nccn1)[C@@H](C)COc1cnc(C(F)(F)F)cn1` [Example 2], in data set [1], the half-life at 1 μM was > 2.17 h. The Kb in data set [2] (0.5 nM Orexin A) was determined as 4.5 nM.
For the molecule `CCN(C(=O)c1ccc(Cl)cc1-n1nccn1)[C@@H](C)COc1cnc(C(F)(F)F)cn1` [Example 24], in data set [1], the half-life at 1 μM is 1.52 h. Also, the Kb in data set [2] (0.5 nM Orexin A) is 1.1 nM; in data set [2] (50 nM Orexin A) it was 1 nM.
On to `CC[C@@H](CNc1cnc(C(F)(F)F)cn1)N(C)C(=O)c1cc(Cl)ccc1-n1nccn1` [Ex 40 in WO2016/ 034882, reference compound], for which, in data set [4], the “OX2R IC50/OX1R IC50” value is listed as “Table 1: 156”. Moreover, the Kb in data set [2] (0.5 nM Orexin A) was found to be 0.73 nM.
In the case of `CCN(C(=O)c1ccc(F)cc1-c1ncccn1)[C@@H](C)COc1cnc(C(F)(F)F)cn1` [Example 27], in data set [1], the half-life at 1 μM was > 2.17 h and the “stability in human liver microsomes compared with closest prior art compounds in WO2016/034882 (in words)” value is on record as “markedly improved stability”. For the same molecule, the Kb in data set [2] (0.5 nM Orexin A) was 1 nM.
Consider `CCN(C(=O)c1ccc(OC)cc1-n1nccn1)[C@@H](C)COc1cnc(C(F)(F)F)cn1` [Example 18], for which the half-life at 1 μM in data set [1] turned out to be 1.18 h. Further, the values for the Kb in data set [2] (0.5 nM Orexin A) and in data set [2] (50 nM Orexin A) were 1.7 nM and 1.8 nM, respectively.
As for `CCN(C(=O)c1ccc(C)cc1-c1nnc(C)o1)[C@@H](C)COc1cnc(C(F)(F)F)cn1` [Example 14], the half-life at 1 μM in data set [1] amounted to 1.48 h. In data set [2] (0.5 nM Orexin A), the Kb is 4.6 nM.
On the same counts, the results for `CCN(C(=O)c1ccccc1-c1noc(C)n1)[C@@H](C)COc1cnc(C(F)(F)F)cn1` [Example 32] are 1.1 h and 2.1 nM.
Regarding `CCN(C(=O)c1cc(F)ccc1-n1nccn1)[C@@H](C)COc1cnc(C(F)(F)F)cn1` [Example 3], in data set [1], the half-life at 1 μM is > 2.17 h. Besides, the Kb in data set [2] (0.5 nM Orexin A) amounted to 2.1 nM.

Source of the values: patent US10604511B2, “N-[(pyrazinyloxy)propanyl]benzamides as antagonists of orexin subtype 1 receptor activity” (Boehringer Ingelheim International GmbH, priority 2016, dated 2020).
